Laboratory results published in patent US12521415B2, “Accelerating repair of mucosal injury using gold(III) compounds” (University of Kentucky Research Foundation, priority 2020, dated 2026).

Experiments:
isolated IEC = assay: Western blot of IEC proteins from control or DSS colitis mice gavaged with AuPhos; format: in vivo, mouse
Method: (§1) Control or DSS colitis mice were gavaged with vehicle (−) or AuPhos (+) (as in FIG. 2) and sacrificed on D14. WB of isolated IEC proteins indicated are shown in nuclear and membranous protein fractions along with densitometry. (#mice=4 for each condition). *p<0.04. FIG. 16E. Normal human colonic biopsies were incubated at 4° C. with AuPhos×3 hrs. Membranous and nuclear fractions examined for indicated proteins by WB.
Taking advantage of the unique electrochemical properties and excellent safety profile of gold in humans, a stable gold compound was designed to modulate mitochondrial processes including oxidative phosphorylation (OXPHOS). […] IEC (FIG. 16C). […] These examples illustrate that AuPhos has utility for “gut selective” IBD therapy.

DSS colitis mice = assay: DSS-induced colitis in mice treated with AuPhos; format: in vivo, mouse; details: for colonic ulceration (tissue histology): left colon
Method: FIG. 9A includes results for changes with 2% DSS given for 7 days followed by water. AuPhos was started (25 mg/kg q 3D) on DAY1. Body Wt changes shown as means of each group (n=6) with SEM for 9 and 13 day trials. FIG. 9B includes results for changes with 2% DSS given for 7 days followed by water. AuPhos was started (25 mg/kg q 3D) on DAY1. Body Wt changes shown as means of each group (n=6) with SEM for 9 and 13 day trials as shown, with corresponding DAI. FIG. 9C includes results for changes with 2% DSS given for 7 days followed by water. AuPhos was started (25 mg/kg q 3D) on DAY1. Histological score in DSS-colitis mice 7 and 13 days after DSS initation. Statistical significance was determined using 2-way ANOVA with Sidak's multiple comparison test (A,B) or unpaired t-test (C). FIG. 9D includes images showing results for changes with 2% DSS given for 7 days followed by water. AuPhos was started (25 mg/kg q 3D) on DAY1. Representative images of H&E staining of whole tissue scan from 13-day study. ★★<0.01, ★★★<0.0001.
FIG. 12A RT-qPCR analysis of cytokines and chemokine genes in AuPhos vs. controls at 9 and 13 days after DSS initiation. FIG. 12B RT-qPCR analysis of cytokines and chemokine genes in AuPhos vs. controls at 9 and 13 days after DSS initiation. FIG. 12C Quantitative RT-PCR analysis of inflammasome markers in D13 DSS mice. Statistical significance was determined using multiple t-test with Holm-Sidak's multiple method. FIG. 12D Serum IL-6 in AuPhos treated (n=4) and control mice, with or without anti-CD3 antibody. ★<0.05; ★★<0.01.
FIGS. 17A-17F illustrate that AuPhos improves DSS-induced colitis. Results shown are for changes with 2% DSS given for 7 days followed by water. AuPhos was started (25 mg/kg q3D) on DAY1. FIG. 17A. Body Wt changes shown as means of each group (n=6) with SEM for 15 day trial as shown, with FIG. 17B. corresponding DAI. FIG. 17C. Histological score in DSS-colitis mice after Day−7, −11, −13, and −15 of DSS initiation. Statistical significance was determined using 2-way ANOVA with Sidak's multiple comparison test (A,B) or unpaired t-test (C) FIG. 17D. Representative images of H&E staining of whole tissue scan from 13-day study. E. Effect of AuPhos on intestinal permeability using FITC-dextran in DSS-colitis mice (n=5) in a separate D7, D9, D11, D13 and D15 experiment. F. RT-qPCR analysis of cytokines and chemokines genes in AuPhos vs. vehicle treated DSS colitis mice from 9-day, 13-day and 15-day studies. ß<0.05, ßß<0.01, ßßß<0.0001.
Given the potential that AuPhos provides a novel approach to IBD therapy, DSS colitis mice were given (2% DSS×7D) 25 mg/kg i.g. AuPhos every 3 days (from the start of DSS) until sacrifice.
Findings in FIG. 9A-9D indicate that AuPhos attenuates tissue inflammation and enhances mucosal healing in DSS colitis mice. To interrogate the effects of AuPhos on Th1 and Treg cytokine production as well as chemokine and inflammasome mediators, mRNA from mice at time points indicated (as in FIG. 9A-9D). […] To test the question of whether AuPhos affected leukocytes directly, control and AuPhos-treated (25 mg/kg i.g. dosed every 3d×2) were injected with anti-CD3 mAb (antiTCR mAb). It is known that CD3 mAb induces a cytokine storm in the periphery and intestine.
The efficacy of AuPhos in the treatment of colitis. Given the potential that AuPhos provides a novel approach to IBD therapy, DSS colitis mice (2% DSS×7D) were given intragastric (i.g.) AuPhos (25 mg/kg) every 3 days (from the start of DSS) until sacrifice.

[1] = test system: normal human colonic biopsies; assay: Western blot of human colonic biopsies incubated with AuPhos; format: cell-based
Method: FIG. 14A Normal human colonic biopsies were incubated a^t 4° C. with AuPhos×3 hrs and membrane fractions examined for mitochondrial complexes expression by WB. FIG. 14B TNF-stimulated colonic NCM460 cells were treated overnight with AuPhos at concentrations indicated. WB for markers indicated are shown in nuclear and membranous protein fractions. FIG. 14C Markers of PI3K pathway were probed in nuclear and cytosolic fractions of AuPhos-treated NCM460 cells (treated with TNF). FIG. 14D NCM460 cell were treated overnight with TNF and probed for the ROS-induced P-PTEN, which inactivates PTEN and activates PI3K.
as §1
The effects of AuPhos in Px-accelerated IL-10KO mice by beginning treatment on D21 (7D after cessation of Px) when colitis is severe is shown in FIG. 13A. AuPhos-induced mitochondrial biogenesis and PI3K signaling. […]

[2] = 2% DSS x7D, 25 mg/kg i.g. every 3 days, 9 and 13 day trials
[3] = 2% DSS x7D, 25 mg/kg i.g. every 3 days, 15 day trial
[4] = DSS colitis mice, 9 and 13 days after DSS initiation, RT-qPCR

[Cl][Au]1([c]2ccccc2Cc2ccccn2)[P](c2ccccc2)(c2ccccc2)c2ccccc2[P]1(c1ccccc1)c1ccccc1 [AuPhos]
Nrf2 and PGC1α levels in IEC (isolated IEC; WB): increased Nrf2 and PGC1α levels | mitochondrial complex levels in IEC (isolated IEC; control and DSS colitis mice, sacrificed D14, WB): increases mitochondrial complex levels | DAI (DSS colitis mice; [2]): significantly reduces | weight (Wt) loss (DSS colitis mice; [2]): significantly reduces | colonic ulceration (tissue histology) (DSS colitis mice; 2% DSS x7D, 25 mg/kg i.g. every 3 days, 13-day study): resolution of colonic ulceration throughout the left colon | disease activity index (DAI) (DSS colitis mice; [3]): significantly reduces | weight (Wt) loss (DSS colitis mice; [3]): significantly reduces | tissue histologic indices (colitis score) (DSS colitis mice; 2% DSS x7D, 25 mg/kg i.g. every 3 days, at 13D): significant decreases | tissue histology indices (colitis score) (DSS colitis mice; 2% DSS x7D, 25 mg/kg i.g. every 3 days, at D11, 13 and 15): significant decreases | colonic ulceration (tissue histology) (DSS colitis mice; 15 day trial series): resolution of colonic ulceration throughout the left colon | markers of inflammasome signaling mRNA (DSS colitis mice; D13 DSS mice, RT-PCR): reduces | pro-inflammatory cytokine mRNA and chemokine-mediators of colitis (mucosal mRNA) (DSS colitis mice; DSS colitis mice, 9-day, 13-day and 15-day studies, RT-qPCR): reduces | chemokine-mediators of colitis mRNA (MCP-1, I-TAC and IP-10) (DSS colitis mice; [4]): reduces | pro-inflammatory cytokine mRNA (IFNγ, TNF, IL-6 and IL-10) (DSS colitis mice; [4]): reduces | acute colitis (DSS colitis mice; DSS mice): attenuates acute colitis | mitochondrial complex levels ([1]; fresh human biopsies, dose range of AuPhos, after 3 h, WB): rapid increased in complexes | mitochondrial complex levels and downstream signaling ([1]; human biopsies, 4° C., AuPhos x3 hrs, WB (FIG. 16E)): increases mitochondrial complex levels and downstream signaling
